# Earlier results in patent US9278997B2, “Processes for the manufacture of macrocyclic depsipeptides and new intermediates” (NOVARTIS AG, priority 2011, dated 2016).
# Biological target: chymotrypsin (Bos taurus, UniProt P00766)
# Details: from J. Nat. Prod. 68(9), 1324-7 (2005); read-out: IC50 value for inhibition of chymotrypsin
substance,measurement,value
"(S)-2-acetamido-N^1-((1S,2S,5S,8S,11R,12S,15S,18S,21R)-2-benzyl-21-hydroxy-5-(4-hydroxybenzyl)-15-isobutyl-8-isopropyl-4,11-dimethyl-3,6,9,13,16,22-hexaoxo-10-oxa-1,4,7,14,17-pentaazabicyclo[16.3.1]docosan-12-yl)pentanediamide [Nostopeptin BN920]",IC50,31 nM
